Assay results as given in patent publication US11214586B2, “Rhodamine triplet state complex and preparation and photodynamic therapy (PDT) study thereof” (SOUTHERN UNIVERSITY OF SCIENCE AND TECHNOLOGY, priority 2018, dated 2022).

Tests used:
MCF-7 cells [1] = experiment: Intracellular ROS, DCFH-DA assay; format: cell-based, human; settings: 5 μM, 11-W lamp for 30 min
Method: The MCF-7 cells were seeded in eight-well chambered coverglasses (lab-Tek, Nunc, USA) and six-well plate, incubated for 24 h in 5% CO2 at 37° C. Next, added to compounds (bpy-Rho and M-Rho) in medium make the final concentrations of 5 μM compounds. After irradiation treatment (11 W lamp 30 min), cells were promptly washed with PBS and incubated with 4 μg/ml 2′7′-dichloro-fluoreseindiacetate (DCFH-DA) for 30 min, and intracellular ROS generation was evaluated by flow cytometry and confocal microscopy.

[2] = Steady-state emission spectra and absolute luminescence quantum yield; format: physicochemical
Method: (§1) The UV-vis absorption spectra were taken on Cary 60 UV-vis spectrophotometer. Steady-state emission spectra at room temperature were recorded on an Edinburgh Instruments FLS980 fluorescence spectrometer. Quartz cuvettes (path length=1 cm) were used in all spectrophotometric and fluorometric measurements. NMR spectra were recorded on a Bruker AVANCE 400 (^1H NMR for 400 MHz and ^13C NMR for 100 MHz) Fourier transform NMR spectrometer with chemical shifts reported relative to tetramethylsilane, (CH3)4Si. High-resolution MS spectra were performed on an Orbitrap Fusion Tribrid mass spectrometer. Elemental analyses of the newly synthesized complexes were preformed on a Elementar Vario EL Cube elemental analyzer at Sun Yat-sen University. The nanosecond time-resolved transient-difference absorption spectra were detected by using Edinburgh LP920 instruments (Edinburgh Instruments, U.K.). All solutions for transient absorption studies were degassed on a high-vacuum line in a two-compartment cell consisting of a 10-ml Pyrex bulb and a 1-cm or 4-mm path length quartz cuvette and sealed from the atmosphere by a Bibby Rotaflo HP6 Teflon stopper. The solutions were rigorously degassed with at least four successive freeze-pump-thaw cycles. Emission lifetime measurements were performed using a conventional laser system. The excitation source used was a 355-nm output (third harmonic) of a Spectra-Physics Quanta-Ray Q-switched GCR-150-10 pulsed Nd-YAG laser. Luminescence decay signals were detected by a Hamamatsu R928 PMT and recorded on a Tektronix Model TDS-620A (500 MHz, 2 GS/s) digital oscilloscope and analyzed using a program for exponential fits. Absolute quantum yields were measured by HAMAMATSU-C11347.

[3] = UV/Vis absorption spectra; format: physicochemical
Method: as §1

MCF-7 = experiment: Selective uptake by flow cytometry; format: cell-based, human; settings: MCF-7, 5 μM, 2 h incubation
Method: (§2) Tumor cells (MCF-7/A 549/HepG2/4T1) and normal cells (MCF-10A/293T/L02/NIH-3T3) (1×10^4 cells) was cultured in six-well plate for 12 h. and then Cells were changed with a medium containing 5 μM complexes (rho-bpy, rho-bpy-Pt-ph, rho-bpy-Rh-ppy, rho-bpy-Re and rho-bpy-Ir-ppy). Cells were washed three times with PBS after 2 h of incubation, Then the cells were harvested, and the fluorescence intensity of complexes were recorded by flow cytometer.

A549 = experiment: Selective uptake by flow cytometry; format: cell-based, human; settings: A549, 5 μM, 2 h incubation
Method: as §2

4T1 = experiment: Selective uptake by flow cytometry; format: cell-based, mouse; settings: 4T1, 5 μM, 2 h incubation
Method: as §2

MCF-7 cells [4] = experiment: Mitochondrial membrane potential, flow-cytometry-based JC-1 assay; format: cell-based, human; settings: 5 uM, 11 W lamp 30 min
Method: Mitochondrial depolarization was assessed by flow cytometry after incubation with JC-1 Molecular Probes (Thermo Fisher Scientific, USA). Briefly, The MCF-7 cells were seeded in six-well plate, incubated for 24 h in 5% CO2 at 37° C. Next, added to compounds (bpy-Rho and M-Rho) in medium make the final concentrations of 5 uM compounds. After irradiation treatment (11 W lamp 30 min). The cells were resuspended in warm PBS, and incubated with JC-1 (4 μg/ml) for 30 min at 37° C. and 5% CO2. Thereafter the cells were centrifuged, resuspended in 600 μL of PBS, and analyzed immediately on a flow cytometer (Becton Dickinson, San Jose, Calif., USA). Untreated cells were used as negative controls.

tumor cells = experiment: Selective uptake by flow cytometry, tumor cells versus normal cells; format: cell-based; settings: among bpy-Rho and M-Rho
Method: as §2

CCN(CC)c1ccc2c(-c3ccnc(-c4cc(C)ccn4)c3)c3ccc(=[N+](CC)CC)cc-3oc2c1.F[P-](F)(F)(F)(F)F.F[P-](F)(F)(F)(F)F.c1ccc(-c2cccc[c]2[Ir+][c]2ccccc2-c2ccccn2)nc1 [Ir-Rho]
intracellular ROS generation (MCF-7 cells [1]): highest ROS generation ability | λem ([2]; Conc. = 1.0 × 10^−6M in MeOH): 629 nm | Φlum ([2]; absolute luminescence quantum yield measured by HAMAMATSU-C11347): 0.014 | λabs ([3]; absorption maximum, in CH3CN): 575 nm | ε × 10^4 ([3]; molar extinction coefficient at the absorption maxima, values × 10^4): 8.75 M^−1 cm^−1 | contrast index (CI) (MCF-7): higher than 2.5 | contrast index (CI) (A549): higher than 2.5 | contrast index (CI) (4T1): higher than 2.5 | ratio of JC-1 aggregates/JC-1 monomers (MCF-7 cells [4]): 1.79 | uptake efficiency and affinity to tumor cells, ranking (tumor cells): highest uptake efficiency and affinity
